Our source for the AC50 values is PubChem BioAssay AID463229 (Broad Institute, 2010).

Active and inactive are the calls of the source.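 Rule for the calls: active = compounds raising the signal whose fitted half-maximal concentration is at or below their top tested dose (cut at about 25 µM in these data); inconclusive = flat fit at 30 to 70% activity, or a poor fit; inactive = the rest.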

For this assay, the system named is INS-1E rat beta cells, no cytokines, CellTiter-Glo ATP, 48 h. Put plainly: ATP level change in INS-1E without cytokines, dose response, counter-screen for beta-cell apoptosis protection project, INS-1E rat cells, ATP luminescence, cherry pick (AID 463229).
The AC50 is the concentration giving half of the maximal activity seen. `c1ccc(-c2cccc(-c3ccccn3)n2)nc1`: the AC50 is 1.24 µM.
`Cc1cc(C)nc(SCc2ccc(C(=O)N/N=C/c3cccc(O)c3O)cc2)n1`: the half-maximal activity concentration (AC50) is 8.06 µM.
Under `Cc1ccc(Nc2cc(C)nc(NCc3ccccc3)n2)cc1` stands 8.01 µM; under `Cc1ccnc(NC(=O)c2ccc([N+](=O)[O-])s2)c1`, 8.41 µM.
As to `O=C(N/N=C/c1cc(Br)c(Br)s1)c1ccncc1`, the half-maximal activity concentration (AC50) is 9.72 µM.
With `C=CCSc1nsc(NC(=O)Nc2ccc(F)cc2)n1`, the AC50 is 3.4 µM.
For the compound `CCN(CC)CCCNC1=C(Cl)C(=O)c2ccccc2C1=O`, the concentration at half-maximal activity (AC50) is 13.1 µM.
For `c1ccc(-[n+]2nc(Nc3cccc4ccccc34)sc2-c2c3ccccc3cc3ccccc23)cc1`, the AC50 was 3.86 µM.
In the case of `O=C(Nc1cccc(NC(=O)c2cc([N+](=O)[O-])ccc2Cl)n1)c1cc([N+](=O)[O-])ccc1Cl` it was 14.8 µM; in that of `COC(=O)C1=C(C)N(Cc2ccccc2)C(=NCc2cccc(Cl)c2)N[C@H]1c1cccc(F)c1`, 6.75 µM; in that of `Cc1cc(OCc2nc(-c3ccc(NC(=O)c4cccnc4)cc3)no2)ccc1Cl`, 1.16 µM.
Under `Cc1ccc(NC(=O)C2=C(c3ccccc3)S(=O)(=O)CCS2(=O)=O)cc1` stands 12.6 µM.
Under `CCN(CC)S(=O)(=O)c1cccc(NC(=O)CNc2cccc(S(=O)(=O)N3CCCC3)c2)c1` stands 6.2 µM.
With `CCCCCCSc1cc(-c2nc3ccc(C)cn3c2NCc2ccccc2)ccc1OC`, the concentration at half-maximal activity (AC50) was 6.2 µM.
Under `Cn1ncc2c(O/N=C(\N)c3ccc(C(C)(C)C)cc3)ncnc21` stands 6.59 µM; under `Cc1[nH]n(-c2ccccc2)c(=O)c1N=Nc1c(O)cc(S(=O)(=O)N(C)C)c2ccccc12`, 3.72 µM; under `Cc1ccc(-c2csc(N3CCC(NS(=O)(=O)c4ccc5c(c4)OCCO5)CC3)n2)cc1`, 6.85 µM.
Under `CCOc1cc(/C=N/NC(=O)c2cc(-c3cccc(OC)c3)nc3ccccc23)ccc1O` stands 6.59 µM; under `O=C(Nc1ccccc1Cl)/C(Cl)=C(\Cl)S(=O)c1ccccc1` (stereo not drawn), 2.9 µM.
As to `O=[N+]([O-])c1ccc(NC(=S)NCCc2ccc(F)cc2)cc1`, the AC50 is 7.46 µM.
In the case of `S=C(NCc1ccc(Cl)cc1)NC12CC3CC(CC(C3)C1)C2` it was 13.9 µM; in that of `CCOc1ccc(-n2c(-c3ccccc3)c[n+]3c2CCC3)cc1`, 1.53 µM.
In the case of `CCCC(=O)NC(c1ccccc1Cl)c1ccc2cccnc2c1O` (stereo not drawn) it was 2.13 µM; in that of `O=C(OCn1ncc(Br)c(Br)c1=O)c1ccccc1Cl`, 4.55 µM.
For the compound `Cc1ccc2nc(-c3cccc(-c4cccc(Cl)c4)c3)c(NCc3ccccc3)n2c1`, the AC50 is 7.11 µM.
On to `Cc1ccc2[nH]c(C(=O)N/N=C/c3ccccc3O)c(C)c2c1`, for which the AC50 was 2.33 µM.
Under `c1ccc(C2(Cn3ccc4ccccc43)OCCO2)cc1` stands > 26 µM (inactive).
Take `CC(C)(C)C1C/C(=C/c2ccccn2)C(=O)/C(=C/c2ccccn2)C1` (stereo not drawn): the AC50 is 0.672 µM.
Under `CCN1/C(=C/c2ccc3cc(C)ccc3[n+]2CC)Sc2ccc3sccc3c21` stands 0.316 µM; under `Cc1ccc2nc(-c3ccc(-c4cccc(Cl)c4)cc3)c(NCc3ccccc3)n2c1`, 2.48 µM; under `Nc1ccccc1C#CC(=O)c1ccccc1`, 11.9 µM.
Under `COc1cc2cc(C(=O)N3CCOCC3)cc(-c3ccc(C)cc3)c2cc1OC` stands 5.15 µM.
Under `COc1ccc2nc(C)cc(N/N=C/c3ccccc3)c2c1` stands 13.8 µM.
On to `O=C(Nc1ccc(Cl)cc1)c1nc[nH]c1C(=O)NCCN(CCNC(=O)c1[nH]cnc1C(=O)Nc1ccc(Cl)cc1)CCNC(=O)c1[nH]cnc1C(=O)Nc1ccc(Cl)cc1`, for which the half-maximal activity concentration (AC50) was 8.08 µM.
Consider `O=C1N/C(=N/N=C/c2ccccc2O)SC1Cc1ccc(F)cc1` (stereo not drawn), for which the AC50 is 14.6 µM.
For `Cc1nc2c3cc(F)ccc3n(Cc3ccccc3)c2s1`, the AC50 was > 26 µM (inactive).
For the compound `CCCC(=O)NC(c1ccc(Cl)cc1Cl)c1ccc2cccnc2c1O` (stereo not drawn), the concentration at half-maximal activity (AC50) is 2.3 µM.
As for `O=C(Nc1ccc(C(=O)Nc2ccccc2Cl)cc1)c1cccnc1`, the AC50 is 1.85 µM.
Under `O=C1C=C(c2ccc(F)cc2OCc2ccccc2)C[C@@H](c2ccc(Cl)cc2)C1` stands 5.46 µM.
Take `O=C(Nc1ccc(F)cc1)Nc1cc(OCC(F)(F)F)cc(OCC(F)(F)F)c1`: the AC50 was 2.25 µM.
In the case of `COC(=O)C1CCN(C(=O)c2cc(-c3ccc(Cl)s3)nc3ccccc23)CC1`, the AC50 is 3.24 µM.
As for `Cc1cccc(OCc2n(CC(=O)OC3CC(C)CCC3C(C)C)c3ccccc3[n+]2C)c1` (stereo not drawn), the half-maximal activity concentration (AC50) is 4.12 µM.
In the case of `CN1/C(=C\C(=O)C[n+]2ccc(C(=O)c3ccccc3)cc2)C(C)(C)c2ccccc21` it was 1.26 µM; in that of `O=C(Nc1cc(Sc2ccccn2)cc([N+](=O)[O-])c1)c1cccc(F)c1`, 8.51 µM.
As to `CC[C@@]1(O)C(=O)OCc2c1cc1n(c2=O)Cc2cc3c(N)cccc3nc2-1`, the half-maximal activity concentration (AC50) was under 0.195 µM.
As for `NC(N)=N/N=C/c1ccc(OCc2ccccc2)cc1`, the AC50 is 14.7 µM.
Regarding `O=C(Nc1nc2ccc(F)cc2s1)C1CCN(S(=O)(=O)c2cc([N+](=O)[O-])ccc2Cl)CC1`, the AC50 is 7.01 µM.
`Cc1ccc2[nH]c3c(N4CCc5ccccc5C4)ncnc3c2c1`: the half-maximal activity concentration (AC50) is 2.58 µM.
In the case of `COc1ccc(C[C@H]2CN3C(=NC[C@@H]3Cc3ccccc3)N2CCNC(=O)CCC2CCCCC2)cc1`, the AC50 was 12.1 µM.
Regarding `Cc1ccc(/C=N/Nc2ccnc3cc(Cl)ccc23)c(C)c1`, the AC50 is 13.4 µM.
As to `CCOc1ccc(N=Cc2c(C)[nH]n(-c3nc4ccccc4[nH]3)c2=O)cc1`, the half-maximal activity concentration (AC50) is 2.83 µM.
Under `C/C(=N\NC(=O)c1cc(-c2cccnc2)nc2ccccc12)c1ccccc1O` stands 5.74 µM; under `CC(=O)Nc1sc2c(c1-c1nc3ccccc3s1)CCN(C(C)C)C2`, 5.11 µM; under `Cc1ccc2[nH]cc(/C=C/c3cc[n+](C)cc3)c2c1`, 5.46 µM.
In the case of `Cc1cccc(NC(=O)c2ccc([N+](=O)[O-])s2)c1C`, the AC50 is 26.1 µM.
On to `O=[N+]([O-])c1ccc(Sc2cccc3cccnc23)c([N+](=O)[O-])c1`, for which the AC50 is 14.5 µM.
Take `Cn1c(NN=O)nc2ccccc21`: the AC50 is 4.08 µM.
In the case of `CCN(CC)S(=O)(=O)c1cc(OC)ccc1N=Nc1ccc(O)c2ncccc12`, the AC50 was 4.04 µM.
In the case of `CC(=O)Nc1ccc(S(=O)(=O)NC2=C(N3CCN(c4ccc(F)cc4)CC3)C(=O)c3ccccc3C2=O)cc1`, the AC50 was 7.51 µM.
As for `Cc1ccc2nc(-c3ccccn3)c(NC3CCCC3)n2c1`, the half-maximal activity concentration (AC50) is 16.6 µM.
Consider `CCCOc1ccc(/C=N/NC(=S)Nc2ccccc2[N+](=O)[O-])c(O)c1`, for which the AC50 is 7.44 µM.
In the case of `COC(=O)c1ccc2[nH]c3cccc(/C(=C/c4ccccc4)c4ccccc4)c3c2c1`, the half-maximal activity concentration (AC50) was 15.7 µM.
As for `CCOc1cc(C)c(S(=O)(=O)Nc2ccc3cn[nH]c3c2)cc1C`, the half-maximal activity concentration (AC50) was 9.86 µM.
As to `CCOc1cc(/C=C2\CCC/C(=C\c3cc(Cl)c(O)c(OCC)c3)C2=O)cc(Cl)c1O`, the concentration at half-maximal activity (AC50) was 7.28 µM.
`Oc1c(Cl)cc(Cl)cc1/C=N/Nc1ncc(Br)cn1`: the concentration at half-maximal activity (AC50) is 3.94 µM.
In the case of `C=CCc1cccc(/C=N/NC(=O)CCC(=O)Nc2ccc(F)cc2)c1O` it was 10.2 µM; in that of `Cc1ccc(C(=O)C[n+]2cc(-c3ccc(C)cc3)n3c2CCCCC3)cc1`, 1.4 µM.
Under `Cc1ccc(S(=O)(=O)/N=C2\C=C(Nc3cccc(C(=O)O)c3)C(=O)c3ccccc32)c(C)c1` stands 7.81 µM.
